Assay results as given in ChEMBL document CHEMBL1156829 (Proc Natl Acad Sci U S A, 2008).

Experiments:
Plasmodium falciparum [1] = test: NOVARTIS: Inhibition of Plasmodium falciparum 3D7 (drug-susceptible) proliferation in erythrocyte-based infection assay; format: functional, organism-based; details: Plasmodium falciparum, 3D7
Plasmodium falciparum [2] = test: NOVARTIS: Inhibition of Plasmodium falciparum W2 (drug-resistant) proliferation in erythrocyte-based infection assay; format: functional, organism-based; details: Plasmodium falciparum, W2; read-out: EC50
[3] = NOVARTIS: Cytotoxicity against human hepatocellular carcinoma cell line (Huh7); format: toxicity, cell-based, Huh-7; details: Huh7 cells (hepatocellular carcinoma cell line)

SMILES	EC50 (Plasmodium falciparum [1])	EC50 (Plasmodium falciparum [2])	CC50 [3]
COc1ccc(N)cc1NC(=O)c1ccc(Cl)cc1Cl	> 890 nM	87.9 nM	6990 nM
COc1ccc(OC)c(-c2ccc(O)c(CNCc3ccccc3OC)c2)c1	> 1520 nM	117 nM	> 10000 nM
Cc1c(C(=O)N2CCC(C)CC2)sc2ncn(CC(=O)N3CCN(c4ccccn4)CC3)c(=O)c12	> 1250 nM	266 nM	> 10000 nM
CCOC(=O)C1=C(C)N=c2sc(=Cc3cccc(OCc4cccc5ccccc45)c3)c(=O)n2C1c1ccc(OC)cc1OC (centres undefined)	> 12500 nM	> 9270 nM	> 100000 nM
COCCNCCN1CCN(c2ccc(C)cc2)C[C@@H]1c1ccccc1	436 nM	548 nM	11200 nM
CCCCN1C=CC=C/C1=C\c1sc2ccccc2[n+]1CC	120 nM	226 nM	1800 nM
CC(C)(C)CC(C)(C)Nc1c(-c2ccccc2OC(=O)c2ccc(C(F)(F)F)cc2)nc2ccccn12	670 nM	64 nM	> 10000 nM
O=[N+]([O-])c1cc(Br)c(Nc2ccccc2)c([N+](=O)[O-])c1	167 nM	75.8 nM	6600 nM
CN(CCCNc1ccnc2cc(Cl)ccc12)S(=O)(=O)c1ccc(Cl)c([N+](=O)[O-])c1	243 nM	185 nM	3140 nM
CCOC(=O)N1CCN(C(=O)CSc2nc(-c3ccc(Cl)cc3)cn2-c2ccc(C)cc2)CC1	710 nM	> 1250 nM	> 10000 nM
COc1cc(C(=O)Nc2nnc(-c3ccccc3)o2)cc(OC)c1OC	5180 nM	> 12500 nM	> 100000 nM
CCCCCN(C(=O)CCc1ccccc1)C(CC)c1nc2ccccc2c(=O)n1-c1ccc(Cl)cc1C (centres undefined)	> 1000 nM	1740 nM	> 305 nM
COc1cc(OC)cc(C(=O)N2CCC(C(=O)Nc3cccc4ccccc34)CC2)c1	> 481 nM	485 nM	> 10000 nM
CCN1C(=O)N(CCC(C)C)C2(CCN(Cc3cc(Cl)ccc3O)CC2)C1=O	348 nM	102 nM	> 100000 nM
COc1ccc(C2(Cc3ccccc3)NC(=O)NC2=O)cc1 (centres undefined)	1340 nM	> 1220 nM	> 10000 nM
NNC(=O)CNC(c1ccccc1)c1cc(Br)ccc1NC(=O)c1ccccc1Br (centres undefined)	342 nM	453 nM	> 100000 nM
COc1ccc(CN2CCN(Cc3ccc(OC)c(C)c3C)C(CCO)C2)c(O)c1 (centres undefined)	1650 nM	319 nM	> 44200 nM
O=C(Nc1cccnc1)c1cc(-c2cccnc2)nc2ccc(Cl)cc12	3960 nM	> 12500 nM	> 100000 nM
Cn1nc(-c2ccccc2)c2c(C(=O)C(F)(F)F)cc(C(=O)C(F)(F)F)c-2c1-c1ccccc1	8230 nM	2330 nM	> 100000 nM
COc1ccc(-c2cc(C3CCN(c4nc(N)c5cc(OC)c(OC)cc5n4)CC3)n[nH]2)cc1OC	202 nM	379 nM	16400 nM
Cc1ccc(O)c(Nc2c3c(c(C#N)c4nc5ccccc5n24)CCC3)c1	231 nM	424 nM	> 10000 nM
COc1ccc(C(=O)N2c3cc(C)ccc3C(Nc3ccc(C)cc3)CC2C)cc1 (centres undefined)	> 12500 nM	2620 nM	> 100000 nM
COc1ccc(CNC(=O)C2CNCC2c2ccc(C(F)(F)F)cc2)cc1 (centres undefined)	165 nM	85.7 nM	24100 nM

SMILES	EC50 (Plasmodium falciparum [1])	EC50 (Plasmodium falciparum [2])	CC50 [3]
CCCCCN(C(=O)c1ccc(Cl)cc1)C(CC)c1nc2ccccc2c(=O)n1-c1ccccc1OC (centres undefined)	878 nM	1050 nM	> 8820 nM
O=S(=O)(NC1=CC2C(=Nc3ccc(NS(=O)(=O)c4ccc(Br)cc4)cc3N2c2ccccc2)C=C1)c1ccc(Br)cc1 (centres undefined)	929 nM	> 1470 nM	> 10000 nM
c1ccc2c(c1)CSc1sccc1C2=C1CCNCC1	88 nM	4410 nM	13000 nM
Cc1ccc(S(=O)(=O)Nc2nc3n(n2)C(c2ccccc2)C=C(c2ccccc2)N3)cc1 (centres undefined)	> 1070 nM	> 1250 nM	> 10000 nM
O=C(NN=Cc1c(O)ccc2ccccc12)c1cccnc1	875 nM	373 nM	> 100000 nM
Cn1nc(C(=O)Nc2ccc(F)c(Cl)c2)c2c1-c1ccccc1S(=O)(=O)C2	> 12500 nM	3610 nM	> 100000 nM
CC(C)c1ccc(C2N(c3ccccc3)C3(C(=O)c4ccccc4C3=O)C(c3ccc(C(C)C)cc3)C23C(=O)c2ccccc2C3=O)cc1 (centres undefined)	802 nM	792 nM	> 10000 nM
O=C(NCCc1nc(-c2ccncc2)n[nH]1)C12CC3CC(CC(C3)C1)C2	> 12500 nM	44.9 nM	> 100000 nM
O=C(NC1CC1)C1CCN(c2cccc3c2C(=O)N(C2CCCCCCC2)C3=O)CC1	203 nM	169 nM	> 51800 nM
Cc1ccc(C)c(NC(=O)C2CCCN(c3nnc(N4CCCC4=O)s3)C2)c1 (centres undefined)	> 5750 nM	154 nM	> 100000 nM
CCOc1ccc(C(=O)Nc2cccc(-c3nc4cc(C)ccc4o3)c2C)cc1	> 1250 nM	> 968 nM	> 10000 nM
CCCCc1c(C)nc2c(OC)cccc2c1O	1690 nM	2110 nM	> 100000 nM
O=C(Cc1cccs1)N1CCC(n2c(Cc3ccc(F)cc3)nc3cccnc32)CC1	> 12500 nM	827 nM	> 100000 nM
C=CC1CN2CCC1CC2[C@@H](OC(=O)c1ccc(OC)cc1)c1ccnc2ccccc12 (some centres undefined)	309 nM	509 nM	87100 nM
COc1ccc(C[C@H]2NC[C@H](O)[C@H]2OC(C)=O)cc1 [ANISOMYCIN]	9.75 nM	10.3 nM	> 2360 nM
Nc1nc(N)c2c(Oc3ccccc3)cccc2n1	448 nM	26.7 nM	> 10000 nM
O=C(Cn1ccc(=NCc2ccccc2)cc1)c1cccc([N+](=O)[O-])c1	397 nM	439 nM	> 10000 nM
CCN1/C(=C/c2sc3ccc(OC)cc3[n+]2CC)C=Cc2cc(C)ccc21	431 nM	508 nM	> 10000 nM
Cn1cnc2cc(OC3CCN(Cc4ccco4)CC3)ccc21	216 nM	192 nM	> 4340 nM
COc1ccc(NC(=O)Cn2ncc3ccccc32)cc1OC	> 1250 nM	984 nM	> 100000 nM
CN(CCCNc1ccnc2cc(Cl)ccc12)C(=O)c1ccc(-c2ccccc2)cc1	326 nM	< 15.6 nM	10000 nM
O=C(COc1cccc2ccccc12)NC1CCS(=O)(=O)C1 (centres undefined)	> 12500 nM	1000 nM	> 100000 nM
c1ccc(Oc2ccc(Nc3nc4nonc4nc3Nc3ccc(Oc4ccccc4)cc3)cc2)cc1	1760 nM	> 1250 nM	> 10000 nM

SMILES	EC50 (Plasmodium falciparum [1])	EC50 (Plasmodium falciparum [2])	CC50 [3]
O=C(NNc1nc2ccccc2nc1Cl)Nc1ccc(Cl)cc1	218 nM	306 nM	7760 nM
Cc1c(C#N)c2ccccc2n1CC(=O)NCCc1ccccc1	398 nM	411 nM	> 100000 nM
CCCCCCCC(O)(c1ccc(OCC)cc1)C(CN1CCCCC1)c1ccccc1 (centres undefined)	1180 nM	456 nM	> 100000 nM
O=C(CSc1nccn1C1CCCC1)Nc1cc(C(F)(F)F)ccc1Cl	545 nM	714 nM	> 100000 nM
COc1ccc(OC)c(-c2ccc(O)c(CNCCc3ccc(Cl)cc3)c2)c1	987 nM	749 nM	> 10000 nM
Cc1ccc(C)c(S(=O)(=O)N=C2C=C(SCC(=O)O)C(=O)c3ccccc32)c1	3600 nM	527 nM	17700 nM
CCS/C(Cl)=C(/NC(=O)c1ccccc1)[P+](c1ccccc1)(c1ccccc1)c1ccccc1	110 nM	52 nM	> 10000 nM
COCCCNc1nc2cc(OC)c(OC)cc2c2nc(-c3ccccc3)nn12	621 nM	541 nM	> 100000 nM
CCOC(=O)N1CCC(n2c(SCC(=O)N3CCCCCC3)nc3ccccc3c2=O)CC1	7340 nM	1090 nM	> 100000 nM
N=C1NC(=O)C(=CC=Cc2ccc([N+](=O)[O-])o2)S1	707 nM	1460 nM	7210 nM
COC(=O)c1ccc(C2C3=C(O)CC(c4cccs4)CC3=Nc3ccccc3N2C(=O)c2ccccc2)cc1 (centres undefined)	436 nM	625 nM	25000 nM
CC(C)(C)CC(C)(C)Nc1c(-c2ccccc2OC(=O)c2ccc(Cl)cc2Cl)nc2ccccn12	279 nM	10.3 nM	> 10000 nM
CC(C)CNc1nc(NCCCn2ccnc2)ncc1C(=O)NCc1ccccc1	257 nM	443 nM	> 10000 nM
Cc1ccc(N=C2S/C(=C\c3ccccc3)C(=O)N2c2ccc(C)cc2)cc1	> 1740 nM	404 nM	> 10000 nM
CCC(CC)CN1CCC(O)(c2ccc3oc(C(=O)Nc4ccc(OC)cc4)cc3c2)CC1	954 nM	617 nM	> 100000 nM
CCOc1ccc(NC(=O)c2ccc(I)o2)cc1	4850 nM	5790 nM	69600 nM
CCOC(=O)c1cnc(SCC(=O)Nc2cc(C)ccc2C)nc1N	> 1250 nM	> 660 nM	> 10000 nM
CC(C)N1CCCc2cc(CN3CCC(n4cc(C(=O)NCCCO)nn4)CC3)ccc21	> 1250 nM	134 nM	> 10000 nM
CCCCCN(CC(=O)Nc1cc(C(C)(C)C)nn1-c1ccc(Cl)c(Cl)c1)C(=O)c1ccc2c(c1)OCO2	1040 nM	966 nM	> 10000 nM
Cc1cc(Nc2ccc(Cl)cc2)nc(NCc2ccccc2)n1	91.9 nM	150 nM	19600 nM
CCN(CC)CCNc1nc(C=Cc2ccc(Cl)cc2)nc2cc3ccccc3cc12	128 nM	193 nM	22500 nM
CN1CCN(c2cc(-c3cccnc3)nc(-c3ccncc3)n2)CC1	588 nM	656 nM	> 9550 nM
